Measured values as given in ChEMBL document CHEMBL4665709, “Rational Avoidance of Protease Cleavage Sites and Symmetrical End-Tagging Significantly Enhances the Stability and Therapeutic Potential of Antimicrobial Peptides” (J Med Chem, 2020).
Where a SMILES comes first, the peptide text is derived from it.

Columns and labels:
Staphylococcus aureus [1] = experiment: Antibacterial activity against Staphylococcus aureus ATCC 29213 after 18 to 24 hrs in presence of 6 uM NH4+ by CLSI-based broth microdilution method; assay type: functional; settings: time hrs 18-24
Erythrocyte = experiment: Hemolytic activity in human RBC assessed as hemolysis; assay type: ADME, cell-based
Salmonella enterica = experiment: Antibacterial activity against Salmonella choleraesuis 503 after 18 to 24 hrs by CLSI-based broth microdilution method; assay type: functional; settings: time hrs 18-24
Escherichia coli [2] = experiment: Antibacterial activity against Escherichia coli ATCC 25922 after 18 to 24 hrs in presence of 1 mM Mg2+ by CLSI-based broth microdilution method; assay type: functional; settings: time hrs 18-24
[3] = Therapeutic index, ratio of MHC for human RBC to geometric mean of peptide MIC for Staphylococcus epidermidis ATCC 12228; assay type: toxicity; settings: human red blood cells (RBC), read-out: TI
[4] = Therapeutic index, ratio of MHC for human RBC to geometric mean of peptide MIC for Streptococcus agalactiae H92; assay type: toxicity; settings: human red blood cells (RBC), read-out: TI
Enterococcus faecalis = experiment: Antibacterial activity against Enterococcus faecalis ATCC 29212 after 18 to 24 hrs by CLSI-based broth microdilution method; assay type: functional; settings: time hrs 18-24
[5] = Hemolytic activity in human RBC assessed as hemolysis at 1 to 128 uM relative to control; assay type: ADME, cell-based, Erythrocyte; settings: human red blood cells (RBC), dose 1-128 µM, read-out: Activity
[6] = Therapeutic index, ratio of MHC for human RBC to geometric mean of peptide MIC for methicillin-resistant Staphylococcus aureus 43300; assay type: toxicity; settings: human red blood cells (RBC), read-out: TI
Streptococcus agalactiae = experiment: Antibacterial activity against Streptococcus agalactiae H92 after 18 to 24 hrs by CLSI-based broth microdilution method; assay type: functional; settings: time hrs 18-24
Staphylococcus aureus [7] = experiment: Antibacterial activity against Staphylococcus aureus ATCC 29213 after 18 to 24 hrs in presence of 100% human serum by CLSI-based broth microdilution method; assay type: functional; settings: time hrs 18-24
[8] = Therapeutic index, ratio of MHC for human RBC to geometric mean of peptide MIC for Salmonella typhimurium 7731; assay type: toxicity; settings: human red blood cells (RBC), read-out: TI
Escherichia coli [9] = experiment: Antibacterial activity against Escherichia coli ATCC 25922 after 18 to 24 hrs in presence of 50% human serum by CLSI-based broth microdilution method; assay type: functional; settings: time hrs 18-24
[10] = Therapeutic index, ratio of MHC for human RBC to geometric mean of peptide MIC for Salmonella pullorum 7913; assay type: toxicity; settings: human red blood cells (RBC), read-out: TI
Staphylococcus aureus [11] = experiment: Antibacterial activity against Staphylococcus aureus ATCC 29213 after 18 to 24 hrs in presence of 6 uM Fe3+ by CLSI-based broth microdilution method; assay type: functional; settings: time hrs 18-24
[12] = Therapeutic index, ratio of MHC for human RBC to geometric mean of peptide MIC for Salmonella choleraesuis 503; assay type: toxicity; settings: human red blood cells (RBC), read-out: TI
Escherichia coli [13] = experiment: Antibacterial activity against Escherichia coli ATCC 25922 after 18 to 24 hrs in presence of 100% human serum by CLSI-based broth microdilution method; assay type: functional; settings: time hrs 18-24
Staphylococcus aureus [14] = experiment: Antibacterial activity against Staphylococcus aureus ATCC 29213 after 18 to 24 hrs in presence of 150 mM Na+ by CLSI-based broth microdilution method; assay type: functional; settings: time hrs 18-24
[15] = Stability of compound at 100 degreeC after 30 to 90 mins; assay type: physicochemical; settings: time 30-90 min
Staphylococcus aureus [16] = experiment: Antibacterial activity against Staphylococcus aureus ATCC 29213 after 18 to 24 hrs in presence of 1 mM Mg2+ by CLSI-based broth microdilution method; assay type: functional; settings: time hrs 18-24
Escherichia coli [17] = experiment: Antibacterial activity against Escherichia coli ATCC 25922 after 18 to 24 hrs in presence of 6 uM NH4+ by CLSI-based broth microdilution method; assay type: functional; settings: time hrs 18-24
Escherichia coli [18] = experiment: Antibacterial activity against Escherichia coli UB1005 after 18 to 24 hrs by CLSI-based broth microdilution method; assay type: functional; settings: time hrs 18-24
[19] = Cytotoxicity against HEK-293T cells assessed as cell viability at 128 uM by MTT assay relative to control; assay type: cell-based; settings: human, read-out: Activity
[20] = Therapeutic index, ratio of MHC for human RBC to geometric mean of peptide MIC for Escherichia coli UB1005; assay type: toxicity; settings: human red blood cells (RBC), read-out: TI
[21] = Therapeutic index, ratio of MHC for human RBC to geometric mean of peptide MIC for Escherichia coli ATCC 25922; assay type: toxicity; settings: human red blood cells (RBC), read-out: TI
Staphylococcus aureus [22] = experiment: Antibacterial activity against methicillin-resistant Staphylococcus aureus 43300 after 18 to 24 hrs by CLSI-based broth microdilution method; assay type: functional; settings: time hrs 18-24
Salmonella typhimurium [23] = experiment: Antibacterial activity against Salmonella typhimurium 14028 after 18 to 24 hrs by CLSI-based broth microdilution method; assay type: functional, Salmonella enterica subsp. enterica serovar Typhimurium; settings: Salmonella enterica, time hrs 18-24
Staphylococcus aureus [24] = experiment: Antibacterial activity against Staphylococcus aureus ATCC 29213 after 18 to 24 hrs in presence of 25% human serum by CLSI-based broth microdilution method; assay type: functional; settings: time hrs 18-24
Staphylococcus aureus [25] = experiment: Antibacterial activity against Staphylococcus aureus 11011 after 18 to 24 hrs by CLSI-based broth microdilution method; assay type: functional; settings: time hrs 18-24
[26] = Therapeutic index, ratio of MHC for human RBC to geometric mean of peptide MIC for Staphylococcus aureus ATCC 29213; assay type: toxicity; settings: human red blood cells (RBC), read-out: TI
[27] = Therapeutic index, ratio of MHC for human RBC to geometric mean of peptide MIC for Salmonella typhimurium 14028; assay type: toxicity; settings: human red blood cells (RBC), read-out: TI
[28] = Therapeutic index, ratio of MHC for human RBC to geometric mean of peptide MIC for Staphylococcus aureus 11011; assay type: toxicity; settings: human red blood cells (RBC), read-out: TI
Salmonella typhimurium [29] = experiment: Antibacterial activity against Salmonella typhimurium 7731 after 18 to 24 hrs by CLSI-based broth microdilution method; assay type: functional, Salmonella enterica subsp. enterica serovar Typhimurium; settings: Salmonella enterica, time hrs 18-24
Escherichia coli [30] = experiment: Antibacterial activity against Escherichia coli ATCC 25922 after 18 to 24 hrs in presence of 8 uM Zn2+ by CLSI-based broth microdilution method; assay type: functional; settings: time hrs 18-24
Staphylococcus aureus [31] = experiment: Antibacterial activity against Staphylococcus aureus ATCC 29213 after 18 to 24 hrs by CLSI-based broth microdilution method; assay type: functional; settings: time hrs 18-24
Staphylococcus aureus [32] = experiment: Antibacterial activity against Staphylococcus aureus ATCC 29213 after 18 to 24 hrs in presence of 4.5 mM K+ by CLSI-based broth microdilution method; assay type: functional; settings: time hrs 18-24
Staphylococcus aureus [33] = experiment: Antibacterial activity against Staphylococcus aureus ATCC 29213 after 18 to 24 hrs in presence of 50% human serum by CLSI-based broth microdilution method; assay type: functional; settings: time hrs 18-24
[34] = Therapeutic index, ratio of MHC for human RBC to geometric mean of peptide MIC for Enterococcus faecalis ATCC 29212; assay type: toxicity; settings: human red blood cells (RBC), read-out: TI
[35] = test system: Staphylococcus epidermidis; experiment: Antibacterial activity against Staphylococcus epidermidis ATCC 12228 after 18 to 24 hrs by CLSI-based broth microdilution method; assay type: functional; settings: time hrs 18-24
[36] = Antibacterial activity against Salmonella pullorum 7913 after 18 to 24 hrs by CLSI-based broth microdilution method; assay type: functional, Salmonella enterica subsp. enterica serovar Pullorum; settings: Salmonella enterica, time hrs 18-24
Escherichia coli [37] = experiment: Antibacterial activity against Escherichia coli ATCC 25922 after 18 to 24 hrs in presence of 4.5 mM K+ by CLSI-based broth microdilution method; assay type: functional; settings: time hrs 18-24
Escherichia coli [38] = experiment: Antibacterial activity against Escherichia coli ATCC 25922 after 18 to 24 hrs in presence of 25% human serum by CLSI-based broth microdilution method; assay type: functional; settings: time hrs 18-24
Staphylococcus aureus [39] = experiment: Antibacterial activity against Staphylococcus aureus ATCC 29213 after 18 to 24 hrs in presence of 8 uM Zn2+ by CLSI-based broth microdilution method; assay type: functional; settings: time hrs 18-24
[40] = Cytotoxicity against mouse RAW264.7 cells assessed as cell viability at 128 uM by MTT assay relative to control; assay type: cell-based; settings: read-out: Activity
Escherichia coli [41] = experiment: Antibacterial activity against Escherichia coli ATCC 25922 after 18 to 24 hrs in presence of 6 uM Fe3+ by CLSI-based broth microdilution method; assay type: functional; settings: time hrs 18-24
Escherichia coli [42] = experiment: Antibacterial activity against Escherichia coli ATCC 25922 after 18 to 24 hrs in presence of 150 mM Na+ by CLSI-based broth microdilution method; assay type: functional; settings: time hrs 18-24
Escherichia coli [43] = experiment: Antibacterial activity against Escherichia coli ATCC 25922 after 18 to 24 hrs by CLSI-based broth microdilution method; assay type: functional; settings: time hrs 18-24

CC[C@H](C)[C@H](N)C(=O)N[C@@H](CS)C(=O)N[C@@H](CCCNC(=N)N)C(=O)N[C@@H](CCCCN)C(=O)N1CCC[C@H]1C(=O)N[C@H](C(=O)N[C@H](C(=O)N[C@@H](CS)C(=O)N[C@@H](CCCNC(=N)N)C(=O)N[C@@H](CCCCN)C(=O)N1CCC[C@H]1C(=O)N[C@H](C(=O)N[C@H](C(=O)N[C@@H](CS)C(=O)N[C@@H](CCCNC(=N)N)C(=O)N[C@@H](CCCCN)C(=O)N1CCC[C@H]1C(=O)N[C@H](C(=O)N[C@H](C(=O)N[C@@H](CS)C(=O)N[C@@H](CCCNC(=N)N)C(=O)N[C@@H](CCCCN)C(=O)N1CCC[C@H]1C(=O)N[C@H](C(N)=O)[C@@H](C)CC)[C@@H](C)CC)[C@@H](C)CC)[C@@H](C)CC)[C@@H](C)CC)[C@@H](C)CC)[C@@H](C)CC (H-ICRKPIICRKPIICRKPIICRKPI-NH2)
Stable: Stabilty [15]
32: selectivity ratio [8] | selectivity ratio [10] | selectivity ratio [12] | selectivity ratio [20] | selectivity ratio [21] | selectivity ratio [27]
> 90%: viability at 128 µM [19] | viability at 128 µM [40]
2 µM: MIC (Escherichia coli [17]) | MIC (Escherichia coli [18]) | MIC (Salmonella typhimurium [23]) | MIC (Escherichia coli [30]) | MIC (Escherichia coli [43])
> 128 µM: MHC (Erythrocyte)
8 µM: MIC (Salmonella enterica) | MIC (Escherichia coli [2]) | MIC (Escherichia coli [9])
> 64 µM: MIC (Staphylococcus aureus [1]) | MIC (Enterococcus faecalis) | MIC (Streptococcus agalactiae) | MIC (Staphylococcus aureus [7]) | MIC (Staphylococcus aureus [11]) | MIC (Staphylococcus aureus [14]) | MIC (Staphylococcus aureus [16]) | MIC (Staphylococcus aureus [22]) | MIC (Staphylococcus aureus [24]) | MIC (Staphylococcus aureus [25]) | MIC (Staphylococcus aureus [31]) | MIC (Staphylococcus aureus [32]) | MIC (Staphylococcus aureus [33]) | MIC [35] | MIC (Staphylococcus aureus [39])
16 µM: MIC (Escherichia coli [13]) | MIC [36]
32 µM: MIC (Escherichia coli [42])
< 5%: hemolysis at up to 128 µM [5]
2: selectivity ratio [3] | selectivity ratio [4] | selectivity ratio [6] | selectivity ratio [26] | selectivity ratio [28] | selectivity ratio [34]
4 µM: MIC (Salmonella typhimurium [29]) | MIC (Escherichia coli [37]) | MIC (Escherichia coli [38]) | MIC (Escherichia coli [41])
